# In PubChem BioAssay (NCI):
#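 Dose response: 5 concentrations. Exposure: 48 h. Format: 96-well plates. Endpoint: linear interpolation; highest concentration if not reached. TGI denotes the concentration required for complete inhibition of growth.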
# Tests used:
# Assay in all cases: NCI tumour cell line growth inhibition, 48 h
# MCF7 breast = system: MCF7 breast
# U251 CNS = system: U251 CNS
# SK-MEL-2 melanoma = system: SK-MEL-2 melanoma
# SK-MEL-5 melanoma = system: SK-MEL-5 melanoma
# PC-3 prostate = system: PC-3 prostate
# SR leukemia = system: SR leukemia
# IGROV1 ovarian = system: IGROV1 ovarian
# DU-145 prostate = system: DU-145 prostate
# RXF 393 renal = system: RXF 393 renal
# T-47D breast = system: T-47D breast
# SNB-75 CNS = system: SNB-75 CNS
# HCT-116 colon = system: HCT-116 colon
# TK-10 renal = system: TK-10 renal
# NCI-H460 lung = system: NCI-H460 lung
# NCI/ADR-RES ovarian = system: NCI/ADR-RES ovarian
# NCI-H226 lung = system: NCI-H226 lung
# HS 578T breast = system: HS 578T breast
# SF-268 CNS = system: SF-268 CNS
# MALME-3M melanoma = system: MALME-3M melanoma
# COLO 205 colon = system: COLO 205 colon
# KM12 colon = system: KM12 colon
# UO-31 renal = system: UO-31 renal
# NCI-H23 lung = system: NCI-H23 lung
# A498 renal = system: A498 renal
# MDA-MB-231 breast = system: MDA-MB-231 breast
# OVCAR-3 ovarian = system: OVCAR-3 ovarian
# EKVX NSCLC = system: EKVX NSCLC
# NCI-H522 lung = system: NCI-H522 lung
# MDA-N = system: MDA-N
# K-562 leukemia = system: K-562 leukemia
# SF-539 CNS = system: SF-539 CNS
# CAKI-1 renal = system: CAKI-1 renal
# SK-OV-3 ovarian = system: SK-OV-3 ovarian
# SW-620 colon = system: SW-620 colon
# OVCAR-5 ovarian = system: OVCAR-5 ovarian
# HT29 colon = system: HT29 colon
# SN12C renal = system: SN12C renal
# OVCAR-4 ovarian = system: OVCAR-4 ovarian
# SNB-19 CNS = system: SNB-19 CNS
# HL-60(TB) leukemia = system: HL-60(TB) leukemia
# LOX IMVI melanoma = system: LOX IMVI melanoma
# CCRF-CEM leukemia = system: CCRF-CEM leukemia
# MOLT-4 leukemia = system: MOLT-4 leukemia
# 786-0 renal = system: 786-0 renal
# SF-295 CNS = system: SF-295 CNS
# UACC-62 melanoma = system: UACC-62 melanoma
# UACC-257 melanoma = system: UACC-257 melanoma
# HOP-62 NSCLC = system: HOP-62 NSCLC
# RPMI-8226 leukemia = system: RPMI-8226 leukemia
# MDA-MB-435 = system: MDA-MB-435
# HOP-92 NSCLC = system: HOP-92 NSCLC
# M14 melanoma = system: M14 melanoma
# A549 NSCLC = system: A549 NSCLC
structure (smiles),measurement,setting,value
Clc1ccc(C2=NNC(c3cccc(Cl)c3)C2)cc1 (stereo not drawn),TGI,MCF7 breast,> 100 µM
same,TGI,U251 CNS,37.5 µM
same,TGI,SK-MEL-2 melanoma,5.55 µM
same,TGI,SK-MEL-5 melanoma,28.1 µM
same,TGI,PC-3 prostate,97.4 µM
same,TGI,SR leukemia,> 100 µM
same,TGI,IGROV1 ovarian,5.07 µM
same,TGI,DU-145 prostate,> 100 µM
same,TGI,RXF 393 renal,> 100 µM
same,TGI,T-47D breast,> 100 µM
same,TGI,SNB-75 CNS,96.5 µM
same,TGI,HCT-116 colon,> 100 µM
same,TGI,TK-10 renal,79.9 µM
same,TGI,NCI-H460 lung,> 100 µM
same,TGI,NCI/ADR-RES ovarian,89.9 µM
same,TGI,NCI-H226 lung,> 100 µM
same,TGI,HS 578T breast,> 100 µM
same,TGI,SF-268 CNS,> 100 µM
same,TGI,MALME-3M melanoma,> 100 µM
same,TGI,COLO 205 colon,29.3 µM
same,TGI,KM12 colon,> 100 µM
same,TGI,UO-31 renal,21.4 µM
same,TGI,NCI-H23 lung,> 100 µM
same,TGI,A498 renal,45 µM
same,TGI,MDA-MB-231 breast,55.1 µM
same,TGI,OVCAR-3 ovarian,> 100 µM
same,TGI,EKVX NSCLC,> 100 µM
same,TGI,NCI-H522 lung,14.4 µM
same,TGI,MDA-N,59.6 µM
same,TGI,K-562 leukemia,> 100 µM
same,TGI,SF-539 CNS,> 100 µM
same,TGI,CAKI-1 renal,> 100 µM
same,TGI,SK-OV-3 ovarian,78.1 µM
same,TGI,SW-620 colon,74.9 µM
same,TGI,OVCAR-5 ovarian,> 100 µM
same,TGI,HT29 colon,> 100 µM
same,TGI,SN12C renal,53.2 µM
same,TGI,OVCAR-4 ovarian,> 100 µM
same,TGI,SNB-19 CNS,> 100 µM
same,TGI,HL-60(TB) leukemia,> 100 µM
same,TGI,LOX IMVI melanoma,33.7 µM
same,TGI,CCRF-CEM leukemia,96.8 µM
same,TGI,MOLT-4 leukemia,> 100 µM
same,TGI,786-0 renal,92.7 µM
same,TGI,SF-295 CNS,92.6 µM
same,TGI,UACC-62 melanoma,> 100 µM
same,TGI,UACC-257 melanoma,> 100 µM
same,TGI,HOP-62 NSCLC,> 100 µM
same,TGI,RPMI-8226 leukemia,41 µM
same,TGI,MDA-MB-435,41.8 µM
same,TGI,HOP-92 NSCLC,38.2 µM
same,TGI,M14 melanoma,> 100 µM
same,TGI,A549 NSCLC,> 100 µM
